# Experimental data reported in patent US20210106550A1, “COMPOSITIONS FOR PREVENTING OR TREATING COGNITIVE IMPAIRMENT-RELATED DISEASE COMPRISING MUMEFURAL” (KOREA INSTITUTE OF ORIENTAL MEDICINE, priority 2018, published 2021).
# Legend:
# [1] = test system: BDNF and phospho-CREB proteins; experiment: western blot of memory-related factors in hippocampus; type: in vivo, Wistar rats
# Description: (§1) Specifically, 12-week-old Wister rats (350 g to 380 g) were used for the experiments. After obtaining the experimental animals, appearance was visually inspected and then normal symptoms were observed during a 7-day acclimation period. Healthy animals were selected therefrom and assigned to groups by a random method according to body weight ranges, and then experiments were performed. During the acclimation and experiment, a constant breeding environment was maintained under the conditions of a temperature of 23±3° C., a relative humidity of 50±10%, a ventilation frequency of 12 times to 16 times per hour, a 12-hour light-dark cycle (light on at 7:00, light off at 19:00), and an intensity of illumination of 150 Lx to 300 Lx. Experiments were performed using sterilized instruments, and the rats were allowed free access to tap water and a solid feed (PMI nutrition, USA) for 24 hours.
# (§2) In order to construct a vascular dementia-mimic animal model, chronic cerebral hypoperfusion was induced by bilateral common carotid artery occlusion (2VO, hereinafter referred to as “brain damage (BCCA0)”) (Wakita et al., 1994). The rats were anesthetized with 4% isoflurane, and the anesthesia was maintained by 1.5% isoflurane during the operation. The central neck was incised to expose the bilateral common carotid artery carefully so as not to cause damage to the vagal nerve. Ligation was performed twice with No. 3 silk, thereby constructing an animal model in which dementia was induced by brain damage.
# After 21 days from the BCCA0 operation, the Wistar rats were orally administered with mumefural for 42 days. The rats were divided into 5 groups listed in Table 1 below, and controls were orally administered with saline. Different concentrations of mumefural were set in the oral administration as low concentration (20 mg/kg), medium concentration (40 mg/kg), and high concentration (80 mg/kg).
# In order to investigate effects of mumefural on normalization of damaged hippocampus in the dementia-mimic animal model, mumefural was administered in the same manner as in Example 1, and then expression levels of memory-related factors in the hippocampus were analyzed.
# Specifically, the hippocampus was excised from each of the dementia-mimic rats after administration of mumefural was completed, and proteins were extracted therefrom. Expression levels of brain-derived neurotrophic factor (BDNF), phospho-cAMP response element-binding protein (phospho-CREB), and cAMP response element-binding protein (CREB) were analyzed by western blotting. β-Actin was used as a loading control.
# AChE = experiment: enzyme-linked immunosorbent assay of AChE activity in hippocampus; type: in vivo; conditions: compared with the negative control; FIG. 8
# Description: as §1
# In order to construct a vascular dementia-mimic animal model, chronic cerebral hypoperfusion was induced by bilateral common carotid artery occlusion (2VO, hereinafter referred to as “brain damage (BCCA0)”) (Wakita et al., 1994). The rats were anesthetized with 4% isoflurane, and the anesthesia was maintained by 1.5% isoflurane during the operation. The central neck was incised to expose the bilateral common carotid artery carefully so as not to cause damage to the vagal nerve. […]
# [2] = test system: NMDAR2A and NMDAR2B proteins; experiment: western blot of post-synaptic receptors in hippocampus; type: in vivo, Wistar rats; conditions: compared with the negative control; FIGS. 12A, 12B
# Description: (§3) Specifically, 12-week-old Wister rats (350 g to 380 g) were used for the experiments. After obtaining the experimental animals, appearance was visually inspected and then normal symptoms were observed during a 7-day acclimation period. Healthy animals were selected therefrom and assigned to groups by a random method according to body weight ranges, and then experiments were performed. […]
# In order to investigate effects of mumefural on normalization of damaged hippocampus in the dementia-mimic animal model, mumefural was administered in the same manner as in Example 1, and then amounts of post-synaptic receptors in the hippocampus were analyzed by examining expression levels of N-methyl-D-aspartate receptor 2A (NMDAR2A) and N-methyl-D-aspartate receptor 2B (NMDAR2B) proteins.
# (§4) Specifically, the hippocampus was excised from each of the dementia-mimic rats after administration of mumefural was completed, and the proteins were extracted therefrom. Expression levels of the NMDAR2A and NMDAR2B proteins were analyzed by western blotting. β-Actin was used as a loading control.
# astrocytes = experiment: immunohistostaining of GFAP (astrocytes) in hippocampus and white matter; type: in vivo, Wistar rats
# Description: as §1, §2
# After 21 days from the BCCA0 operation, the Wistar rats were orally administered with mumefural for 42 days. The rats were divided into 5 groups listed in Table 1 below, and controls were orally administered with saline. […]
# In order to investigate effects of mumefural on normalization of damaged hippocampus and corpus callosum of white matter in the dementia-mimic animal model, mumefural was administered in the same manner as in Example 1, and then microglia and astrocytes were detected in the hippocampus and white matter to identify gliosis. […]
# [3] = test system: PSD-95 and synaptophysin-1 proteins; experiment: western blot of synaptic markers in hippocampus; type: in vivo, Wistar rats; conditions: compared with the negative control; FIGS. 11A, 11B
# Description: as §1, with “Experiments were performed using sterilized instruments, and the rats were allowed free access to tap water and a solid feed (PMI nutrition, USA) for 24 hours.” left out
# In order to investigate effects of mumefural on normalization of synaptic markers in the dementia-mimic animal model, mumefural was administered in the same manner as in Example 1, and then expression levels of PSD-95 and synaptophysin-1 proteins in the hippocampus were analyzed.
# as §4, with “PSD-95” for “NMDAR2A”, “synaptophysin-1” for “NMDAR2B”
# phospho-CAMKII protein = experiment: western blot of phospho-CAMKII in hippocampus; type: in vivo, Wistar rats; conditions: compared with the negative control; FIGS. 13A, 13B
# Description: as §3
# In order to investigate effects of mumefural on normalization of damaged hippocampus in the dementia-mimic animal model, mumefural was administered in the same manner as in Example 1, and then expression levels of neurotransmitter secretion substances in the hippocampus were analyzed.
# as §4, with “and” for “and the”, “phospho-Ca^2+/calmodulin-dependent protein kinase II (phospho-CAMKII)” for “the NMDAR2A”, “Ca^2+/calmodulin-dependent protein kinase II (CAMKII)” for “NMDAR2B”
# [4] = test system: ChAT-positive cholinergic cells; experiment: immunohistostaining of ChAT-positive cholinergic cells in basal forebrain; type: in vivo, Wistar rats; conditions: BCCAo rats, oral mumefural; compared with the negative control; FIGS. 4A, 4B
# Description: as §3
# In order to investigate effects of mumefural on normalization of the cholinergic system in the dementia-mimic animal model, mumefural was administered in the same manner as in Example 1, and then the number of cholinergic neurons of the basal forebrain was measured.
# Specifically, the brain was excised from each of the dementia-mimic rats after administration of mumefural was completed and sectioned into slices with a thickness of 40 μm. Subsequently, the cholinergic neurons of the basal forebrain were detected using choline acetyltransferase (ChAT) protein, which is known to be expressed in cholinergic neurons. The slices were stained by immunohistostaining using an anti-ChAT antibody as a primary antibody and a donkey anti-goat antibody as a secondary antibody, and anti-ChAT positive cells were detected.
# [5] = 20 mg/kg, 40 mg/kg, and 80 mg/kg oral, relative to normal control
# [6] = compared with the negative control, FIGS. 14A, 14B
smiles,measurement,setting,value
O=Cc1ccc(COC(=O)CC(O)(CC(=O)O)C(=O)O)o1 (centres unmarked) [mumefural],expression level of BDNF protein vs normal control,[1]; [5],higher expression levels than that of the normal control by about three times or more
same,expression level of phospho-CREB protein vs normal control,[1]; [5],higher expression levels than that of the normal control by about three times or more
same,expression level of BDNF protein in hippocampus,[1]; [6],significantly increased
same,expression level of phospho-CREB protein in hippocampus,[1]; [6],significantly increased
same,activity of AChE in the hippocampus,AChE,decreased
same,expression level of NMDAR2A protein in hippocampus,[2],significantly increased
same,expression level of NMDAR2B protein in hippocampus,[2],significantly increased
same,"numbers of astrocytes, effect vs normal control","astrocytes; 20 mg/kg, 40 mg/kg, and 80 mg/kg oral, hippocampus and white matter",effects similar to or superior to those of the normal control
same,numbers of astrocytes (GFAP positive cells) in the hippocampus,"astrocytes; compared with the negative control, FIGS. 16A, 16B",significantly decreased
same,numbers of astrocytes (GFAP positive cells) in the white matter,"astrocytes; compared with the negative control, FIGS. 16C, 16D",significantly decreased
same,expression level of PSD-95 protein in hippocampus,[3],increased
same,expression level of synaptophysin-1 protein in hippocampus,[3],increased
same,expression level of the phospho-CAMKII protein in hippocampus,phospho-CAMKII protein,significantly increased
same,number of cells positive for the anti-ChAT antibody in the basal forebrain,[4],significantly increased
